Measurements published in patent publication US20220298225A1, “METHODS AND COMPOSITIONS FOR TREATING CANCER WITH COLLAGEN BINDING DRUG CARRIERS” (The University of Chicago, priority 2019, published 2022).

What was measured:
B = test: B
Protocol: Table printed on a drawing sheet, FIG. 2A-D
Blood plasma was collected at indicated time points. […] (B) Plasma half-lives of Dox were calculated using two-phase exponential decay: MFI (t)=Ae^−αt+Be^−βt. t½, α, fast clearance half-life; t½, β, slow clearance half-life. […] At the indicated time points, tumors were harvested, and the amount of Dox within the tumors was quantified (mean±SEM. n=5 for 2 h, n=7 for 24 h per group). […] 1 h after injection, tumors were harvested and fluorescence was analyzed by confocal microscopy. Tissues were also stained with DAPI and anti-CD31 antibody. Scale bar=100 μm. Representative images of 3 tumors, each. Two experimental replicates. Statistical analyses were done using ANOVA with Tukey's test. *p<0.05; **p<0.01; N.S.=not significant.

MMTV-PyMT cells = test: Cellular uptake of Dox-conjugates (confocal microscopy); assay type: cell-based, mouse; settings: after 1 h of incubation, 50 μM equivalent of Dox
Protocol: To evaluate the cellular uptake of Dox-conjugates, MMTV-PyMT cells were seeded in 96 well high content imaging plate (Corning) at 5000 cells/well and incubated overnight. […] After the incubation, cells were washed twice, treated with 75 nM of Lysotracker Deep Red and further incubated 30 min at 37° C. Cells were washed twice and observed by IX83 microscope (Olympus) with ×60 magnification. Images were processed using ImageJ software (NIH). Scale bar; 20 μm.

[1] = mouse models; cited from earlier work
MMTV-PyMT breast cancer [2] = test: MMTV-PyMT murine breast cancer model, anti-tumor efficacy; assay type: in vivo, mouse; settings: single i.v. injection 5 mg/kg Dox basis on day 7
Protocol: The MMTV-PyMT murine breast cancer model was prepared as described previously (9). A total of 5×10^5 MMTV-PyMT cells suspended in 50 μL of PBS were injected subcutaneously into the mammary gland on the right side of each mouse. […] Tumors were measured with a digital caliper at indicated time points, and volumes were calculated as ellipsoids, where V=4/3×3.14×depth/2×width/2×height/2. Mice were sacrificed when tumor volume had reached over 500 mm^3 or when active ulceration was observed. For the therapeutic experiment, FVB mice originated from Charles River origin were used. […] The proportion of mice from different providers was equalized among all groups.

MMTV-PyMT breast cancer [3] = test: Tumor-infiltrating lymphocytes by flow cytometry in MMTV-PyMT model; assay type: in vivo, mouse; settings: 7 days after treatment, 5 mg/kg
Protocol: MMTV-PyMT model was prepared as described above. […] Mice were sacrificed on day 14. Cell suspensions were obtained from each tumor as described previously (9). Tumors were harvested and digested in Dulbecco's Modified Eagle Medium (DMEM) supplemented with 2% FBS, 2 mg/mL collagenase D and 40 μg/mL DNase I (Roche) for 30 min at 37° C. Single-cell suspensions were obtained by gently disrupting the organs through a 70 μm cell strainer. Red blood cells were lysed with ACK lysing buffer (Quality Biological). Fixable live/dead cell discrimination was performed using Fixable Viability Dye eFluor 455 (eBioscience) according to the manufacturer's instructions. Following a washing step, cells were stained with specific antibodies for 20 min on ice prior to fixation. Following antibodies were used to stain the cells: CD3 (145-2C11, BD Biosciences), CD4 (RM4-5, BD Biosciences), CD8α (53-6.7, BD Biosciences), CD45 (30-F11, BD Biosciences), and NK1.1 (PK136, BD Biosciences). All flow cytometric analyses were done using a Fortessa flow cytometer (BD Biosciences) and analyzed using FlowJo software (Tree Star).

[4] = Toxicity profiles in tumor-free FVB mice; settings: 20 mg/kg Dox basis
Protocol: Blood samples were collected from each mouse in EDTA-coated tube by submandibular bleeding on day 3 and day 6 after injection for plasma cytokine analysis and hematological analysis. Body weight of each mouse was measured at indicated time points. On day 16, mice were sacrificed and organs were harvested. Spleens were weighed, and the other organs were used for histological analysis. Mice were sacrificed when more than 15% decrease of initial body weight was observed.
Blood samples were analyzed using COULTER Ac⋅T 5diff CP hematology analyzer (Beckman coulter) according to the manufacturer's instructions.
Blood plasma was collected from whole blood sample as described above and stored at −20° C. until use. Cytokine concentrations in plasma were measured using Ready-SET-Go! ELISA kits (eBioscience) and Can Get Signal solution (TOYOBO) according to manufacturer's instructions.
Organs were fixed with 2% paraformaldehyde in PBS overnight. After embedding in paraffin, blocks were cut into 5 μm sections, followed by H&E staining.

Compound: COc1cccc2c1C(=O)c1c(O)c3c(c(O)c1C2=O)C[C@@](O)(/C(CO)=N/NC(=O)CCCCCN1C(=O)C=CC1=O)C[C@@H]3O[C@H]1C[C@H](N)[C@H](O)[C@H](C)O1 [Aldoxorubicin]
- t½, α (B): 2.4 ± 0.168 min
- t½, β (B): 22.6 ± 3.3 h

Compound: COc1cccc2c1C(=O)c1c(O)c3c(c(O)c1C2=O)C[C@@](O)(C(=O)CO)C[C@@H]3O[C@H]1C[C@H](N)[C@H](O)[C@H](C)O1 [Dox, Doxorubicin]
- intracellular localization of Dox fluorescence (MMTV-PyMT cells): detected in cytoplasm, intracellular acidic organelles, and preferentially in the nucleus
- cumulative dose that irreversibly damages cardiac tissue [1]: 15 mg/kg

Compound: COc1cccc2c1C(=O)c1c(O)c3c(c(O)c1C2=O)C[C@@](O)(/C(CO)=N/NC(=O)CCCCCN1C(=O)C=CC1=O)C[C@@H]3O[C@H]1C[C@H](N)[C@H](O)[C@H](C)O1 [aldoxorubicin]
- tumor growth (MMTV-PyMT breast cancer [2]): did not
- number of CD4+ T cells within the tumor per unit tumor mass (MMTV-PyMT breast cancer [3]): not
- number of CD8+ T cells within the tumor per unit tumor mass (MMTV-PyMT breast cancer [3]): not
- number of NK cells within the tumor per unit tumor mass (MMTV-PyMT breast cancer [3]): not
- plasma concentration of IFN-γ ([4]; day 3): increased
- plasma concentration of IL-5 ([4]; day 3): increased
- plasma concentration of IL-6 ([4]; day 3): increased
- plasma concentration of TNF-α ([4]; day 3): increased
- white blood cell (WBC) counts ([4]; day 3): significant decrease
- hematocrit ([4]; day 6): significant decrease
- hemoglobin concentration ([4]; day 6): significant decrease
- red blood cell (RBC) counts ([4]; day 6): significant decrease
- splenomegaly (spleen weight) ([4]; day 16): induced splenomegaly
